Measured values as given in the supplement of paper PMC13207355.

What was measured:
Details in all cases: exposure time: 72 h
[1] = system: E13 (patient-derived glioblastoma stem cells of classical subtype); assay: surviving fraction (nuclei count normalised to DMSO); higher = more cells surviving (less toxic)
[2] = system: E28 (patient-derived glioblastoma stem cells of classical subtype); assay: as above
[3] = system: E31 (patient-derived glioblastoma stem cells of proneural subtype); assay: as above
[4] = system: E34 (patient-derived glioblastoma stem cells of proneural subtype); assay: as above
[5] = system: E21 (patient-derived glioblastoma stem cells of mesenchymal subtype); assay: as above
[6] = system: E57 (patient-derived glioblastoma stem cells of mesenchymal subtype); assay: as above
[7] = system: FT3469 (normal neural stem cell line); assay: as above
[8] = system: E13; assay: phenotypic distance (Euclidean, principal components) from DMSO controls (arbitrary units); higher = stronger morphological change
[9] = system: E28; assay: as above
[10] = system: E31; assay: as above
[11] = system: E34; assay: as above
[12] = system: E21; assay: as above
[13] = system: E57; assay: as above
[14] = system: FT3469; assay: as above
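For phenotypic distance (Euclidean, principal components) from DMSO controls in this document: cell Painting imaging in 384-well plates, CellProfiler features reduced to at least 20 principal components, Euclidean distance versus same-plate DMSO vehicle wells (0.1% v/v), median over six images per well.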
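For surviving fraction (nuclei count normalised to DMSO) in this document: nuclei counted by high-content imaging of Hoechst-stained cells in laminin-coated 384-well plates, relative to 0.1% DMSO vehicle wells, with staurosporine as cell-death control.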

C[C@]12CC[C@H](O)C[C@H]1CC[C@@H]1[C@@H]2C[C@@H](O)[C@]2(C)[C@@H](C3=CC(=O)OC3)CC[C@]12O [Digoxigenin]
Details	phenotypic distance	surviving fraction
[1], 4.1 nM	–	0.965
[1], 12.3 nM	–	1.05
[1], 37 nM	–	0.962
[1], 111.1 nM	–	0.89
[1], 333.3 nM	–	0.662
[1], 1000 nM	–	0.426
[1], 3000 nM	–	0.354
[2], 4.1 nM	–	1.01
[2], 12.3 nM	–	1.11
[2], 37 nM	–	0.883
[2], 111.1 nM	–	0.991
[2], 333.3 nM	–	1.02
[2], 1000 nM	–	0.998
[2], 3000 nM	–	0.537
[3], 4.1 nM	–	1.01
[3], 12.3 nM	–	0.832
[3], 37 nM	–	0.916
[3], 111.1 nM	–	0.996
[3], 333.3 nM	–	0.946
[3], 1000 nM	–	0.603
[3], 3000 nM	–	0.348
[4], 4.1 nM	–	0.86
[4], 12.3 nM	–	0.942
[4], 37 nM	–	0.861
[4], 111.1 nM	–	1.04
[4], 333.3 nM	–	0.767
[4], 1000 nM	–	0.63
[4], 3000 nM	–	0.568
[5], 4.1 nM	–	0.996
[5], 12.3 nM	–	0.951
[5], 37 nM	–	0.891
[5], 111.1 nM	–	0.887
[5], 333.3 nM	–	0.582
[5], 1000 nM	–	0.473
[5], 3000 nM	–	0.331
[6], 4.1 nM	–	0.942
[6], 12.3 nM	–	0.969
[6], 37 nM	–	1.05
[6], 111.1 nM	–	0.975
[6], 333.3 nM	–	0.663
[6], 1000 nM	–	0.346
[6], 3000 nM	–	0.238
[7], 4.1 nM	–	0.774
[7], 12.3 nM	–	0.984
[7], 37 nM	–	1.03
[7], 111.1 nM	–	0.968
[7], 333.3 nM	–	0.801
[7], 1000 nM	–	0.652
[7], 3000 nM	–	0.62
[8], 4.1 nM	0.193	–
[8], 12.3 nM	0.571	–
[8], 37 nM	0.503	–
[8], 111.1 nM	0.911	–
[8], 333.3 nM	2.63	–
[8], 1000 nM	3.73	–
[8], 3000 nM	4.86	–
[9], 4.1 nM	0.383	–
[9], 12.3 nM	0.587	–
[9], 37 nM	0.46	–
[9], 111.1 nM	0.569	–
[9], 333.3 nM	0.59	–
[9], 1000 nM	1.04	–
[9], 3000 nM	2.24	–
[10], 4.1 nM	0.558	–
[10], 12.3 nM	0.764	–
[10], 37 nM	0.809	–
[10], 111.1 nM	0.828	–
[10], 333.3 nM	1.83	–
[10], 1000 nM	3.63	–
[10], 3000 nM	4.82	–
[11], 4.1 nM	0.591	–
[11], 12.3 nM	0.506	–
[11], 37 nM	0.531	–
[11], 111.1 nM	0.98	–
[11], 333.3 nM	1.57	–
[11], 1000 nM	3.22	–
[11], 3000 nM	4.52	–
[12], 4.1 nM	0.486	–
[12], 12.3 nM	0.815	–
[12], 37 nM	0.94	–
[12], 111.1 nM	1.64	–
[12], 333.3 nM	3.18	–
[12], 1000 nM	3.95	–
[12], 3000 nM	6.35	–
[13], 4.1 nM	0.552	–
[13], 12.3 nM	1.14	–
[13], 37 nM	0.391	–
[13], 111.1 nM	0.908	–
[13], 333.3 nM	3.27	–
[13], 1000 nM	4.63	–
[13], 3000 nM	6.24	–
[14], 4.1 nM	1	–
[14], 12.3 nM	1.82	–
[14], 37 nM	0.883	–
[14], 111.1 nM	1.27	–
[14], 333.3 nM	2.84	–
[14], 1000 nM	4.38	–
[14], 3000 nM	3.34	–

CCCCCCCCCCCCCC(=O)O[C@@H]1[C@@H](C)[C@@]2(O)[C@@H](C=C(CO)C[C@]3(O)C(=O)C(C)=C[C@@H]23)[C@@H]2C(C)(C)[C@]12OC(C)=O [Phorbol 12-myristate 13-acetate]
Details	phenotypic distance	surviving fraction
[1], 4.1 nM	–	0.681
[1], 12.3 nM	–	0.64
[1], 37 nM	–	0.728
[1], 111.1 nM	–	0.596
[1], 333.3 nM	–	0.708
[1], 1000 nM	–	0.576
[1], 3000 nM	–	0.47
[2], 4.1 nM	–	0.75
[2], 12.3 nM	–	0.65
[2], 37 nM	–	0.725
[2], 111.1 nM	–	0.795
[2], 333.3 nM	–	0.815
[2], 1000 nM	–	0.668
[2], 3000 nM	–	0.383
[3], 4.1 nM	–	1.07
[3], 12.3 nM	–	1.06
[3], 37 nM	–	1.23
[3], 111.1 nM	–	1.01
[3], 333.3 nM	–	1.07
[3], 1000 nM	–	0.994
[3], 3000 nM	–	0.0149
[4], 4.1 nM	–	0.524
[4], 12.3 nM	–	0.516
[4], 37 nM	–	0.618
[4], 111.1 nM	–	0.488
[4], 333.3 nM	–	0.688
[4], 1000 nM	–	0.48
[4], 3000 nM	–	0.478
[5], 4.1 nM	–	0.677
[5], 12.3 nM	–	0.88
[5], 37 nM	–	0.786
[5], 111.1 nM	–	0.68
[5], 333.3 nM	–	0.75
[5], 1000 nM	–	0.775
[5], 3000 nM	–	0.0234
[6], 4.1 nM	–	0.331
[6], 12.3 nM	–	0.32
[6], 37 nM	–	0.374
[6], 111.1 nM	–	0.233
[6], 333.3 nM	–	0.369
[6], 1000 nM	–	0.367
[6], 3000 nM	–	0.108
[7], 4.1 nM	–	0.75
[7], 12.3 nM	–	0.728
[7], 37 nM	–	0.729
[7], 111.1 nM	–	0.701
[7], 333.3 nM	–	0.832
[7], 1000 nM	–	0.791
[7], 3000 nM	–	0.571
[8], 4.1 nM	2.62	–
[8], 12.3 nM	2.5	–
[8], 37 nM	2.61	–
[8], 111.1 nM	2.82	–
[8], 333.3 nM	1.86	–
[8], 1000 nM	2.26	–
[8], 3000 nM	2.58	–
[9], 4.1 nM	2.11	–
[9], 12.3 nM	1.89	–
[9], 37 nM	1.72	–
[9], 111.1 nM	1.44	–
[9], 333.3 nM	1.52	–
[9], 1000 nM	1.21	–
[9], 3000 nM	4.49	–
[10], 4.1 nM	3.22	–
[10], 12.3 nM	3.36	–
[10], 37 nM	2.74	–
[10], 111.1 nM	1.67	–
[10], 333.3 nM	1.98	–
[10], 1000 nM	1.94	–
[10], 3000 nM	6.13	–
[11], 4.1 nM	4.26	–
[11], 12.3 nM	4.21	–
[11], 37 nM	3.53	–
[11], 111.1 nM	3.9	–
[11], 333.3 nM	2.78	–
[11], 1000 nM	2.96	–
[11], 3000 nM	4.34	–
[12], 4.1 nM	2.4	–
[12], 12.3 nM	2.57	–
[12], 37 nM	2.24	–
[12], 111.1 nM	2.1	–
[12], 333.3 nM	2.01	–
[12], 1000 nM	1.76	–
[12], 3000 nM	6.77	–
[13], 4.1 nM	7.04	–
[13], 12.3 nM	6.41	–
[13], 37 nM	5.79	–
[13], 111.1 nM	8.21	–
[13], 333.3 nM	6.38	–
[13], 1000 nM	6.18	–
[13], 3000 nM	11.1	–
[14], 4.1 nM	3.13	–
[14], 12.3 nM	2.56	–
[14], 37 nM	3.38	–
[14], 111.1 nM	2.45	–
[14], 333.3 nM	1.86	–
[14], 1000 nM	2.16	–
[14], 3000 nM	4.11	–
